“And” between values parts separate entries of the source, which are not always exact repeats. Equal entries are not always repeated.
Test: Pharmacokinetics study after separate oral administration in rats (HPLC-MS of plasma)
Type: in vivo, Sprague-Dawley rats
Conditions: for Plasma concentrations: individual rats NO. 1-5; for AUC(0-t) / Cmax / Tmax / t1/2z: labelled substance = analyte, individual rats No1-No5
Experimental: A total of 15 SPF Sprague-Dawley rats (SD, male, 190–210 g) were provided by Sino-British Sippr/BK Lab Animal Company Ltd. (Shanghai, China). The rats were kept in standard conditions (22–26 °C; 40–60% relative humidity; 12 h light/dark cycle). Throughout the rearing period, the animals had access to food and water ad libitum. Animal experiments were conducted in accordance with the standard ethical guidelines of the Laboratory Animal Management Committee of Jiangsu Province (SYXK (SU) 2016-0011).
Following 1 week of adaptation, the rats were fasted for about 12 h before dosing, with free access to water. […] After administration of the first dose, blood samples were taken from the retro-orbital vein at 0, 5, 15, 30, 60, 90, 120, 180, 240, 360, 480, and 1,440 min and collected in heparinized tubes. The samples were centrifuged at 3,500 rpm for 10 min at 4 °C and the plasma was stored at −80 °C until analysis.
An Agilent 1,200 series HPLC system (Agilent Technologies, Waldbronn, Germany) equipped with a quaternary pump on-line degasser, auto-sampler and column oven, and an SL G1946D quadruple mass spectrometer (Agilent Technologies, Santa Clara, CA, USA) equipped with an electrospray ionization (ESI) source, were used for separation and detection. Data were acquired and analyzed using Agilent ChemStation Software Version A.01.00 (Agilent Technologies, Santa Clara, CA, USA).
The separation was carried out with an Amethyst C18-H column (150 × 4.6 mm, 5 μm, Sepax Technologies, Newark, DE, USA) with a guard column SB-C18 (10 × 4.6 mm, 5 μm, Phenomenex Technologies, Torrance, USA) at a constant temperature of 25 °C.
The mass spectra were acquired using ESI interfaced to a single quadrupole mass spectrometer. The ionization conditions were as follows: drying gas (N2) flow rate of 11 L/min, drying gas temperature of 350 °C, nebulizing gas (N2) pressure of 35 psi, capillary voltage of 3,500 V, quad temperature of 100 °C, and fragment voltage of 110 V. A series of m/z were monitored using a timed program according to the retention times and characteristic ions for the corresponding HPLC-MS peak obtained by scanning from m/z 100–1,000 in the standard sample.
Briefly, an aliquot of plasma sample (100 μL) was spiked with 5% formic acid (10 μL) in centrifuge tube. Subsequently, hydrochloric acid (2 mol/L, 10 μL) and IS solution (960.00 ng/mL, 20 μL) were added. Then ethyl acetate/n-butyl alcohol (1:1 v/v; 1,000 μL) was used to extract the components. The samples were then homogenized by vortex mixing and centrifuged for 10 min at 14,000 rpm. After centrifugation, 800 μL of supernatant was transferred to another centrifuge tube and the sample was evaporated to dryness. The residues were dissolved in 100 μL of methanol and centrifuged for 10 min at 12,000 rpm. 50 μL of the supernatant was transferred to the vial and an aliquot of 5 μL was injected into the HPLC-MS system for analysis.
DAS 2.0 (Chinese Pharmacological Association, Shanghai, China) was used to calculate the pharmacokinetic parameters using the non-compartment model, including the area under curve (AUC), mean residence time (MRT), half-life ( t1/2z), clearance rate (CL), maximum plasma concentration (Cmax), and time (Tmax). All results are expressed as mean ± standard deviation (SD). One way analysis of variance followed by […] was used for comparison of different groups using Graph pad prism 5 software. A p-value of <0.05 was considered statistically significant.

[1] = IQ group (oral IQ 50 mg/kg), rat plasma
[2] = QG group (oral QG 50 mg/kg), rat plasma
[3] = Qr group (oral Qr 50 mg/kg), rat plasma

With `O=c1c(O)c(-c2ccc(O)c(O)c2)oc2cc(O)cc(O)c12` [Qr, Quercetin] the Plasma concentrations (IQ group (oral IQ 50 mg/kg), 5 min) was 0.0970 µg/mL and 0.0721 µg/mL, the Plasma concentrations (IQ group (oral IQ 50 mg/kg), 120 min) was 1.9138 µg/mL and 3.9695 µg/mL and 3.6634 µg/mL and 3.5926 µg/mL and 4.4828 µg/mL and the Plasma concentrations (IQ group (oral IQ 50 mg/kg), 180 min) was 2.4247 µg/mL and 3.3843 µg/mL and 2.6286 µg/mL and 0.5293 µg/mL and 3.8511 µg/mL. For the same compound, the Plasma concentrations (IQ group (oral IQ 50 mg/kg), 240 min) was 1.9400 µg/mL and 3.3812 µg/mL and 2.4084 µg/mL and 1.3204 µg/mL and 1.2509 µg/mL, the Plasma concentrations (IQ group (oral IQ 50 mg/kg), 360 min) was 1.3134 µg/mL and 2.9840 µg/mL and 4.5110 µg/mL and 1.8791 µg/mL and 1.0801 µg/mL and the Plasma concentrations (IQ group (oral IQ 50 mg/kg), 480 min) was 1.8258 µg/mL and 2.8292 µg/mL and 0.6421 µg/mL and 0.9759 µg/mL and 0.5033 µg/mL. The Plasma concentrations (IQ group (oral IQ 50 mg/kg), 1440 min) was 0.0903 µg/mL and 1.3332 µg/mL and 1.6634 µg/mL and 0.2104 µg/mL and 0.0611 µg/mL, the “AUC(0-t)” value [1] was 2661.03 mg·min/L and 1721.03 mg·min/L and 1261.04 mg·min/L and 1844.61 mg·min/L and 3575.83 mg·min/L and the Cmax [1] was 8.46 mg/L and 10.3703 mg/L and 4.575 mg/L and 4.452 mg/L and 5.147 mg/L. The Tmax [1] was 30 min and 60 min, the t1/2z [1] was 140.584 min and 447.176 min and 267.937 min and 934.411 min and the “Detection in rat plasma” value (IQ group: oral IQ 50 mg/kg) was “measured”. For the same compound, the Plasma concentrations (QG group (oral QG 50 mg/kg), 5 min) was 0.0000 µg/mL, the Plasma concentrations (QG group (oral QG 50 mg/kg), 120 min) was 0.0000 µg/mL and 0.1780 µg/mL and 0.3500 µg/mL and 0.2643 µg/mL and 0.0913 µg/mL and the Plasma concentrations (QG group (oral QG 50 mg/kg), 180 min) was 1.4057 µg/mL and 1.5224 µg/mL and 4.1120 µg/mL and 0.0564 µg/mL and 1.5510 µg/mL. The Plasma concentrations (QG group (oral QG 50 mg/kg), 240 min) was 2.3859 µg/mL and 4.4346 µg/mL and 6.8085 µg/mL and 1.4459 µg/mL and 1.9159 µg/mL, the Plasma concentrations (QG group (oral QG 50 mg/kg), 360 min) was 0.9976 µg/mL and 4.1271 µg/mL and 4.2680 µg/mL and 6.8178 µg/mL and 3.6391 µg/mL and the Plasma concentrations (QG group (oral QG 50 mg/kg), 480 min) was 0.8809 µg/mL and 5.3835 µg/mL and 6.7852 µg/mL and 4.3535 µg/mL and 4.4498 µg/mL. For the same compound, the Plasma concentrations (QG group (oral QG 50 mg/kg), 1440 min) was 0.2544 µg/mL and 0.8784 µg/mL and 0.5199 µg/mL and 0.3250 µg/mL and 0.3662 µg/mL, the “AUC(0-t)” value [2] was 1100.93 mg·min/L and 4341.94 mg·min/L and 5313.01 mg·min/L and 3484.77 mg·min/L and 3287.74 mg·min/L and the Cmax [2] was 2.3859 mg/L and 5.384 mg/L and 6.808 mg/L and 6.818 mg/L and 4.45 mg/L. The Tmax [2] was 480 min (2×) and 240 min and 360 min, the t1/2z [2] was 543.112 min and 501.359 min and 335.324 min and 249.834 min and 197.288 min and the Plasma concentrations (Qr group (oral Qr 50 mg/kg), 5 min) was 0.6407 µg/mL and 0.0695 µg/mL and 0.0573 µg/mL and 0.8024 µg/mL and 0.1711 µg/mL. For the same compound, the Plasma concentrations (Qr group (oral Qr 50 mg/kg), 120 min) was 4.6249 µg/mL and 4.6038 µg/mL and 5.1999 µg/mL and 1.2945 µg/mL and 3.6490 µg/mL, the Plasma concentrations (Qr group (oral Qr 50 mg/kg), 180 min) was 3.3106 µg/mL and 4.4107 µg/mL and 6.1783 µg/mL and 1.0598 µg/mL and 3.5415 µg/mL and the Plasma concentrations (Qr group (oral Qr 50 mg/kg), 240 min) was 1.9691 µg/mL and 3.0875 µg/mL and 1.7504 µg/mL and 2.2541 µg/mL. The Plasma concentrations (Qr group (oral Qr 50 mg/kg), 360 min) was 3.0693 µg/mL and 1.5656 µg/mL and 2.5296 µg/mL and 1.0259 µg/mL and 1.7407 µg/mL, the Plasma concentrations (Qr group (oral Qr 50 mg/kg), 480 min) was 1.7015 µg/mL and 2.7059 µg/mL and 3.0087 µg/mL and 1.1568 µg/mL and 0.8288 µg/mL and the Plasma concentrations (Qr group (oral Qr 50 mg/kg), 1440 min) was 0.4167 µg/mL and 0.4319 µg/mL and 0.6012 µg/mL and 0.2204 µg/mL and 0.3296 µg/mL. The “AUC(0-t)” value [3] was 2664.65 mg·min/L and 3200.67 mg·min/L and 3831.17 mg·min/L and 1368.81 mg·min/L and 1887.27 mg·min/L, the Cmax [3] was 7.855 mg/L and 9.701 mg/L and 9.916 mg/L and 3.579 mg/L and 6.28 mg/L and the Tmax [3] was 90 min and 30 min. For the same compound, the t1/2z [3] was 372.465 min and 513.187 min and 401.333 min and 439.177 min, the “Detection in rat plasma” value (Qr group: oral Qr 50 mg/kg) was “could be detected in rat plasma” and the CL (Qr group: oral Qr 50 mg/kg, rat plasma, mean ± SD, n = 5) was 0.02 ± 0.008 L/min/kg.
